Here are results for one compound from paper PMC5218480 (PLoS ONE, 2017).

This experiment deals with MV-4-11 cells. In words: Gene expression microarray analysis (Affymetrix PrimeView) and GSEA. Format: cell-based, human. The arrangement: RFU PODN (11730768_x_at) / Fold change /veh PODN (11730768_x_at) / RFU LINC00158 (11744669_a_at) / Fold change /veh LINC00158 (11744669_a_at) / RFU DUSP10 (11751237_a_at) / Fold change /veh DUSP10 (11751237_a_at) / RFU ID3 (11757404_x_at) / Fold change /veh ID3 (11757404_x_at) / RFU PLEKHG5 (11737974_s_at) / Fold change /veh PLEKHG5 (11737974_s_at) / RFU LRRC4B (11730491_at) / Fold change /veh LRRC4B (11730491_at) / RFU GIMAP4 (11747438_a_at) / Fold change /veh GIMAP4 (11747438_a_at) / RFU KRT8 (11758183_x_at) / Fold change /veh KRT8 (11758183_x_at) / RFU CNN1 (11734310_a_at) / Fold change /veh CNN1 (11734310_a_at) / RFU VPS37D (11726825_at) / Fold change /veh VPS37D (11726825_at) / RFU C10orf10 (11716522_x_at) / Fold change /veh C10orf10 (11716522_x_at) / RFU KIR2DL2 /// KIR2DL4 /// KIR2DL5A /// KIR2DL5B /// KIR2DS1 /// KIR2DS2 /// KIR2DS3 /// KIR2DS4 /// KIR3DL3 /// KIR3DL3 /// KIR3DS1 (11738374_at) / Fold change /veh KIR2DL2 /// KIR2DL4 /// KIR2DL5A /// KIR2DL5B /// KIR2DS1 /// KIR2DS2 /// KIR2DS3 /// KIR2DS4 /// KIR3DL3 /// KIR3DL3 /// KIR3DS1 (11738374_at) / RFU C1QL1 (11718748_at) / Fold change /veh C1QL1 (11718748_at) / RFU TMPRSS4 (11747572_a_at) / Fold change /veh TMPRSS4 (11747572_a_at) / RFU HAMP (11756126_x_at) / Fold change /veh HAMP (11756126_x_at) / RFU RNFT2 (11725882_a_at) / Fold change /veh RNFT2 (11725882_a_at) / RFU NR4A2 (11747474_a_at) / Fold change /veh NR4A2 (11747474_a_at) / RFU ABCC12 (11746883_a_at) / Fold change /veh ABCC12 (11746883_a_at) / RFU TMEM136 (11760407_x_at) / Fold change /veh TMEM136 (11760407_x_at) / RFU CLDN22 /// WWC2 (11732394_at) / Fold change /veh CLDN22 /// WWC2 (11732394_at) / RFU HLA-DPB1 (11760878_x_at) / Fold change /veh HLA-DPB1 (11760878_x_at) / RFU SPINT1 (11716480_a_at) / Fold change /veh SPINT1 (11716480_a_at) / RFU GAP43 (11754022_s_at) / Fold change /veh GAP43 (11754022_s_at) / RFU A4GNT (11735810_at) / Fold change /veh A4GNT (11735810_at) / RFU PRB3 (11715151_x_at) / Fold change /veh PRB3 (11715151_x_at) / RFU TUBB4B (11761932_at) / Fold change /veh TUBB4B (11761932_at) / RFU CAPN14 (11732068_a_at) / Fold change /veh CAPN14 (11732068_a_at) / RFU TMCC2 (11721928_a_at) / Fold change /veh TMCC2 (11721928_a_at) / RFU IRGQ (11745062_a_at) / Fold change /veh IRGQ (11745062_a_at) / RFU FAM174B (11720279_a_at) / Fold change /veh FAM174B (11720279_a_at) / RFU TMPRSS4 (11748680_a_at) / Fold change /veh TMPRSS4 (11748680_a_at) / RFU FAM212B (11763350_a_at) / Fold change /veh FAM212B (11763350_a_at) / RFU PLEKHG5 (11743358_a_at) / Fold change /veh PLEKHG5 (11743358_a_at) / RFU ZSCAN30 (11745921_a_at) / Fold change /veh ZSCAN30 (11745921_a_at) / RFU CMKLR1 (11741424_a_at) / Fold change /veh CMKLR1 (11741424_a_at) / RFU LOC101060620 /// MAPK8IP1 (11723275_at) / Fold change /veh LOC101060620 /// MAPK8IP1 (11723275_at) / RFU SPTSSB (11747773_x_at) / Fold change /veh SPTSSB (11747773_x_at) / RFU PRSS12 (11739890_at) / Fold change /veh PRSS12 (11739890_at) / RFU BIN1 (11741810_x_at) / Fold change /veh BIN1 (11741810_x_at) / RFU WNT11 (11732464_a_at) / Fold change /veh WNT11 (11732464_a_at) / RFU C10orf10 (11716521_a_at) / Fold change /veh C10orf10 (11716521_a_at) / RFU C5orf56 (11738089_at) / Fold change /veh C5orf56 (11738089_at) / RFU CYB561 (11721691_x_at) / Fold change /veh CYB561 (11721691_x_at) / RFU ANKRD19P (11752326_a_at) / Fold change /veh ANKRD19P (11752326_a_at) / RFU OR2T12 /// OR2T33 /// OR2T8 (11738714_s_at) / Fold change /veh OR2T12 /// OR2T33 /// OR2T8 (11738714_s_at) / RFU VCAN (11748164_a_at) / Fold change /veh VCAN (11748164_a_at) / RFU JSRP1 (11732532_at) / Fold change /veh JSRP1 (11732532_at) / RFU KRTAP10-11 (11738290_x_at) / Fold change /veh KRTAP10-11 (11738290_x_at) / RFU MYO3A (11730013_a_at) / Fold change /veh MYO3A (11730013_a_at) / RFU EBF3 (11725865_a_at) / Fold change /veh EBF3 (11725865_a_at) / RFU CAMK2N1 (11719241_x_at) / Fold change /veh CAMK2N1 (11719241_x_at) / RFU C5orf56 (11738088_a_at) / Fold change /veh C5orf56 (11738088_a_at) / RFU OLFML3 (11715873_a_at) / Fold change /veh OLFML3 (11715873_a_at) / RFU LOC100653217 /// NTM (11731650_a_at) / Fold change /veh LOC100653217 /// NTM (11731650_a_at) / RFU MAPK11 (11762145_a_at) / Fold change /veh MAPK11 (11762145_a_at) / RFU FIZ1 (11724087_x_at) / Fold change /veh FIZ1 (11724087_x_at) / RFU OASL (11726364_x_at) / Fold change /veh OASL (11726364_x_at) / RFU SOX15 (11748057_x_at) / Fold change /veh SOX15 (11748057_x_at) / RFU CD79A (11719716_a_at) / Fold change /veh CD79A (11719716_a_at) / RFU HIST1H1D (11736915_at) / Fold change /veh HIST1H1D (11736915_at) / RFU CASKIN2 (11723855_a_at) / Fold change /veh CASKIN2 (11723855_a_at) / RFU LOC730098 (11760151_x_at) / Fold change /veh LOC730098 (11760151_x_at) / RFU OR4N2 (11742367_at) / Fold change /veh OR4N2 (11742367_at) / RFU PRRT2 (11749266_a_at) / Fold change /veh PRRT2 (11749266_a_at) / RFU SNX32 (11753110_a_at) / Fold change /veh SNX32 (11753110_a_at) / RFU CDHR5 (11726645_a_at) / Fold change /veh CDHR5 (11726645_a_at) / RFU RCAN1 (11760418_a_at) / Fold change /veh RCAN1 (11760418_a_at) / RFU FAM167A (11723789_a_at) / Fold change /veh FAM167A (11723789_a_at) / RFU FAM26E (11764081_at) / Fold change /veh FAM26E (11764081_at) / RFU ISYNA1 (11749810_s_at) / Fold change /veh ISYNA1 (11749810_s_at) / RFU ACY1 (11761880_at) / Fold change /veh ACY1 (11761880_at) / RFU 11764098_at / Fold change /veh 11764098_at / RFU SAMD14 (11745864_x_at) / Fold change /veh SAMD14 (11745864_x_at) / RFU NPB (11741838_a_at) / Fold change /veh NPB (11741838_a_at) / RFU TMPRSS6 (11731388_a_at) / Fold change /veh TMPRSS6 (11731388_a_at) / RFU KRTAP10-2 (11738614_at) / Fold change /veh KRTAP10-2 (11738614_at) / RFU ARHGAP8 /// PRR5-ARHGAP8 (11727945_x_at) / Fold change /veh ARHGAP8 /// PRR5-ARHGAP8 (11727945_x_at) / RFU KRTAP5-7 /// NADSYN1 (11734609_at) / Fold change /veh KRTAP5-7 /// NADSYN1 (11734609_at) / RFU RASL12 (11751679_a_at) / Fold change /veh RASL12 (11751679_a_at) / RFU CDKN2B (11736163_a_at) / Fold change /veh CDKN2B (11736163_a_at) / RFU PRF1 (11729649_at) / Fold change /veh PRF1 (11729649_at) / RFU, ZNF638 /// ZNF638-IT1 / Fold change vs veh, ZNF638 /// ZNF638-IT1 / RFU, PANK3 / Fold change vs veh, PANK3 / RFU, SH3YL1 / Fold change vs veh, SH3YL1 / RFU, ZEB2 / Fold change vs veh, ZEB2 / RFU, NRIP1 / Fold change vs veh, NRIP1 / RFU, PTTG1IP / Fold change vs veh, PTTG1IP / RFU, CAPN2 / Fold change vs veh, CAPN2 / RFU, MED14 / Fold change vs veh, MED14 / RFU, SNORA58 / Fold change vs veh, SNORA58 / RFU, C1orf63 / Fold change vs veh, C1orf63 / RFU, LRRFIP1 / Fold change vs veh, LRRFIP1 / RFU, NDUFAF7 / Fold change vs veh, NDUFAF7 / RFU, SLC12A2 / Fold change vs veh, SLC12A2 / RFU, IBTK / Fold change vs veh, IBTK / RFU, ESF1 / Fold change vs veh, ESF1 / Fold change vs veh, TMEM50B / RFU, TAOK1 / Fold change vs veh, TAOK1 / RFU, ACBD3 / Fold change vs veh, ACBD3 / RFU, TMA16 / Fold change vs veh, TMA16 / RFU, RWDD3 / Fold change vs veh, RWDD3 / RFU, BCAT1 / Fold change vs veh, BCAT1 / RFU, EDEM3 / Fold change vs veh, EDEM3 / RFU, TMEM33 / Fold change vs veh, TMEM33 / RFU, WDR75 / Fold change vs veh, WDR75 / RFU, AHCTF1 / Fold change vs veh, AHCTF1 / RFU, TFRC / Fold change vs veh, TFRC / RFU, ZDHHC17 / Fold change vs veh, ZDHHC17 / RFU, NOM1 / Fold change vs veh, NOM1 / RFU, ARL8B / Fold change vs veh, ARL8B / RFU, ZBTB11 / Fold change vs veh, ZBTB11 / RFU, TAMM41 / Fold change vs veh, TAMM41 / RFU, KIAA1704 /// LOC100996395 / Fold change vs veh, KIAA1704 /// LOC100996395 / RFU, ING1 / Fold change vs veh, ING1 / RFU, TRMT61B / Fold change vs veh, TRMT61B / RFU, FUBP3 / Fold change vs veh, FUBP3 / RFU, TP53 / Fold change vs veh, TP53 / RFU, TNKS2 / Fold change vs veh, TNKS2 / RFU, ZFP14 / Fold change vs veh, ZFP14 / RFU, ACTR2 / Fold change vs veh, ACTR2 / RFU, PPP3R1 / Fold change vs veh, PPP3R1 / RFU, PIK3R1 / Fold change vs veh, PIK3R1 / RFU, HNRNPA1 / Fold change vs veh, HNRNPA1 / RFU, RNF170 / Fold change vs veh, RNF170 / RFU, ZNF28 / Fold change vs veh, ZNF28 / RFU, RNGTT / Fold change vs veh, RNGTT / RFU, OGT / Fold change vs veh, OGT / RFU, BRD1 / Fold change vs veh, BRD1 / RFU, MARS / Fold change vs veh, MARS / RFU, ZNF655 / Fold change vs veh, ZNF655 / RFU, FAHD1 / Fold change vs veh, FAHD1 / RFU, BDP1 / Fold change vs veh, BDP1 / RFU, LRRCC1 / Fold change vs veh, LRRCC1 / RFU, ARID1A / Fold change vs veh, ARID1A / RFU, ZNF146 / Fold change vs veh, ZNF146 / RFU, ZNF330 / Fold change vs veh, ZNF330 / RFU, GPN3 / Fold change vs veh, GPN3 / RFU, C9orf123 / Fold change vs veh, C9orf123 / RFU, N4BP2L2 / Fold change vs veh, N4BP2L2 / RFU, ARFIP1 / Fold change vs veh, ARFIP1 / RFU, FAM179B / Fold change vs veh, FAM179B / RFU, BCL10 / Fold change vs veh, BCL10 / RFU, UHRF1BP1L / Fold change vs veh, UHRF1BP1L / RFU, BET1 / Fold change vs veh, BET1 / RFU, CNOT2 / Fold change vs veh, CNOT2 / RFU, ZNF268 / Fold change vs veh, ZNF268 / Fold change vs veh, ZNF507 / RFU, DGCR2 / Fold change vs veh, DGCR2 / RFU, WDSUB1 / Fold change vs veh, WDSUB1 / Fold change vs veh, HSP90B1 /// MIR3652 / RFU, ADSS / Fold change vs veh, ADSS / RFU, GK / Fold change vs veh, GK / RFU, ZNF148 / Fold change vs veh, ZNF148 / RFU, TAF9 / Fold change vs veh, TAF9 / RFU, SLC1A5 / Fold change vs veh, SLC1A5 / RFU, SLMO2 / Fold change vs veh, SLMO2 / RFU, ABCC4 / Fold change vs veh, ABCC4 / RFU, LOC101060439 /// RAP1B / Fold change vs veh, LOC101060439 /// RAP1B / RFU, RFX7 / Fold change vs veh, RFX7 / RFU, GTPBP10 / Fold change vs veh, GTPBP10 / RFU, CNEP1R1 / Fold change vs veh, CNEP1R1 / RFU, BIVM-ERCC5 /// ERCC5 / Fold change vs veh, BIVM-ERCC5 /// ERCC5 / RFU, ILF3 / Fold change vs veh, ILF3 / RFU 11762660_at / Fold change /veh 11762660_at / RFU VCAN (11757783_s_at) / Fold change /veh VCAN (11757783_s_at) / RFU DDX43 (11728927_at) / Fold change /veh DDX43 (11728927_at) / RFU KRT8 (11758188_x_at) / Fold change /veh KRT8 (11758188_x_at) / RFU NKD1 (11759106_at) / Fold change /veh NKD1 (11759106_at) / RFU SRD5A1 (11742802_a_at) / Fold change /veh SRD5A1 (11742802_a_at) / RFU TPSAB1 /// TPSB2 (11721975_s_at) / Fold change /veh TPSAB1 /// TPSB2 (11721975_s_at) / RFU GSTM3 (11746129_a_at) / Fold change /veh GSTM3 (11746129_a_at) / RFU IL23R (11737362_x_at) / Fold change /veh IL23R (11737362_x_at) / RFU TMEM51 (11727254_a_at) / Fold change /veh TMEM51 (11727254_a_at) / RFU PIWIL2 (11732686_x_at) / Fold change /veh PIWIL2 (11732686_x_at) / RFU ORM1 (11744905_x_at) / Fold change /veh ORM1 (11744905_x_at) / RFU CCDC152 (11743942_at) / Fold change /veh CCDC152 (11743942_at) / RFU ECM1 (11717891_a_at) / Fold change /veh ECM1 (11717891_a_at) / RFU IL23R (11748794_a_at) / Fold change /veh IL23R (11748794_a_at) / RFU TNFAIP8L3 (11732012_x_at) / Fold change /veh TNFAIP8L3 (11732012_x_at) / RFU MBOAT4 (11741988_at) / Fold change /veh MBOAT4 (11741988_at) / RFU 11764193_at / Fold change /veh 11764193_at / RFU TMEM53 (11763286_at) / Fold change /veh TMEM53 (11763286_at) / RFU MAGEB2 (11727129_at) / Fold change /veh MAGEB2 (11727129_at) / RFU TMEM200A (11744735_a_at) / Fold change /veh TMEM200A (11744735_a_at) / RFU CCDC152 (11751479_a_at) / Fold change /veh CCDC152 (11751479_a_at) / RFU FAM211A (11726209_a_at) / Fold change /veh FAM211A (11726209_a_at) / RFU RGS16 (11746705_a_at) / Fold change /veh RGS16 (11746705_a_at) / RFU VCAN (11755009_s_at) / Fold change /veh VCAN (11755009_s_at) / RFU RHOB (11743442_s_at) / Fold change /veh RHOB (11743442_s_at) / RFU RGS16 (11720943_a_at) / Fold change /veh RGS16 (11720943_a_at) / RFU RGS16 (11720944_at) / Fold change /veh RGS16 (11720944_at) / RFU, VPS4B / Fold change vs veh, VPS4B / RFU, CREB1 / Fold change vs veh, CREB1 / RFU, DNAJC13 / Fold change vs veh, DNAJC13 / RFU, GNAQ / Fold change vs veh, GNAQ / RFU, CDK5R1 / Fold change vs veh, CDK5R1 / RFU, ZRANB3 / Fold change vs veh, ZRANB3 / RFU, CUL4A / Fold change vs veh, CUL4A / RFU, CCNY / Fold change vs veh, CCNY / RFU, UFL1 / Fold change vs veh, UFL1 / RFU, COG3 / Fold change vs veh, COG3 / RFU, DIAPH2 / Fold change vs veh, DIAPH2 / RFU, SKA2 / Fold change vs veh, SKA2 / RFU, AFF3 / Fold change vs veh, AFF3 / RFU, LMF1 / Fold change vs veh, LMF1 / RFU, IPO11 / Fold change vs veh, IPO11 / RFU, DFFB / Fold change vs veh, DFFB / RFU, FOXP1 / Fold change vs veh, FOXP1 / RFU, CARD8 / Fold change vs veh, CARD8 / RFU, STRN3 / Fold change vs veh, STRN3 / RFU, ADK / Fold change vs veh, ADK / RFU, RASSF2 / Fold change vs veh, RASSF2 / RFU, WIPF1 / Fold change vs veh, WIPF1 / RFU, LARP1B / Fold change vs veh, LARP1B / RFU, RASA1 / Fold change vs veh, RASA1 / RFU, RB1 / Fold change vs veh, RB1 / RFU, PPFIA1 / Fold change vs veh, PPFIA1 / RFU, MAT2A / Fold change vs veh, MAT2A / RFU, CCT5 / Fold change vs veh, CCT5 / RFU, WDR92 / Fold change vs veh, WDR92 / RFU, CUX1 / Fold change vs veh, CUX1 / RFU, TTC7A / Fold change vs veh, TTC7A / RFU, TMEM135 / Fold change vs veh, TMEM135 / RFU, DEPTOR / Fold change vs veh, DEPTOR / RFU, CPM / Fold change vs veh, CPM / RFU, DNAJB6 / Fold change vs veh, DNAJB6 / RFU, CACNA2D3 / Fold change vs veh, CACNA2D3 / RFU, DTX4 / Fold change vs veh, DTX4 / RFU, TFCP2 / Fold change vs veh, TFCP2 / RFU, GMCL1 /// GMCL1P1 / Fold change vs veh, GMCL1 /// GMCL1P1 / RFU, AEBP2 / Fold change vs veh, AEBP2 / RFU, SNHG1 /// SNORD22 /// SNORD25 /// SNORD26 /// SNORD27 /// SNORD28 /// SNORD29 /// SNORD31 / Fold change vs veh, SNHG1 /// SNORD22 /// SNORD25 /// SNORD26 /// SNORD27 /// SNORD28 /// SNORD29 /// SNORD31 / Fold change (Aza/veh), C12orf56 (ProbeSet 11735607_a_at) / Fold change (ACY-1035/veh), C12orf56 (ProbeSet 11735607_a_at) / Fold change (Aza/veh), FGFR1OP (ProbeSet 11751329_s_at) / Fold change (ACY-1035/veh), FGFR1OP (ProbeSet 11751329_s_at) / Fold change (Aza/veh), VPS36 (ProbeSet 11739960_a_at) / Fold change (ACY-1035/veh), VPS36 (ProbeSet 11739960_a_at) / RFU SYPL1 (11715823_x_at) / Fold change /veh SYPL1 (11715823_x_at) / RFU IGFBP7 (11715501_s_at) / Fold change /veh IGFBP7 (11715501_s_at) / RFU REEP3 (11722064_at) / Fold change /veh REEP3 (11722064_at) / RFU IGLL1 (11728026_x_at) / Fold change /veh IGLL1 (11728026_x_at): dose or concentration left out as unconfirmed. The following applies: ProbeSet 11727958_a_at; LIST B.

For `Nc1ccc(-c2cccs2)cc1NC(=O)c1ccc2c(c1)cc(C1CC1)n2CCN1CCOCC1` [ACY-1035], the “RFU, ING1” value is reported as 74.08 RFU.
